Measured values published in US8722673B2, “Imine compounds for combating invertebrate pests” (BASF SE, priority 2008, dated 2014).

How the values were obtained:
Assay type in all cases: in vivo
[1] = test system: Brown Dog Tick Adults (Rhipicephalus sanguineus); experiment: Brown dog tick adults glass vial contact assay; conditions: 100 ppm; 3 DAT (days after treatment)
Method: (§1) If not otherwise specified, the tests were conducted as glass vial contact assays. Glass vials (20 ml scintillation vials) were used. Treatment solutions were mixed with technical grade chemicals diluted in acetone. Treatment solutions needed for the assays included generally 1 and 10 ppm (0.01 and 0.1 μg/cm^2, respectively), but optionally also 100 and/or 1000 ppm for first tier vials. As commercial standard, alphacypermethrin was run at 1 ppm. As solvent control, acetone was used for the assay. Treatment solution was pipetted into the bottom of each vial. Each vial was turned on its side and placed onto a commercial grade hot dog roller without applying heat. The uncapped vials were allowed to roll to allow for the acetone treatment to vent off. After drying, the vials were placed into the compartmented vial shipping boxes. The workstation was prepared by chilling the table and plastic Petri dishes with the inside wall coated with Fluon. A weigh boat of 10% sugar water saturated cotton dental pellets was also prepared. The animal pests were collected into a tube with a rechargeable insect vacuum. The tube of animal pests was placed in a laboratory refrigerator until the animal pests were incapacitated. […]
Treatment solutions were mixed with test compound diluted in acetone at concentrations of 10 and 100 ppm. […] Ticks were evaluated by rolling the vials on a preheated hotdog roller. […]

[2] = test system: Western Flower Thrips (Frankliniella occidentalis); experiment: Western flower thrips glass vial and leaf disc test; conditions: 300 ppm; larvae or adults; 2 DAT
Method: Serial dilutions of each technical grade AI were made in pure acetone. 0.5 ml of the treatment solution was deposited into the bottom of a glass vial (scintillation vial). The cap was screwed back onto the vial and inverted for about five seconds. The cap was subsequently removed and the vial laid on its side and rolled constantly, on a hot dog roller, until all the acetone had flashed off and the inner surface of the vial was dry. Cotton leave discs were also dipped simultaneously into the treatment solutions and allowed to dry. After the vials were dried, the leave discs were placed into the vials to serve as a food/water source for the thrips. Each treatment was replicated 5-fold. Western flower thrips were aspirated into the vials, approximately 5 larvae or adults/vial. Following treatment application the vials were held in a holding room under fluorescent light and constant 26° C. Thrips mortality was assessed at 2 DAT (days after treatment), counting all thrips both dead and alive.

[3] = test system: Acrobat Ant Workers (Crematogaster sp.); experiment: Acrobat ant workers glass vial contact assay; conditions: 100 ppm; 48 h after treatment
Method: as §1, with “incapacitated. The animal pests were emptied into chilled Petri dish. A small cotton dental pellet was soaked in water or in 10 wt % sugar water, whereas the excess solution was gently squeezed out.” for “incapacitated.”

Measured: mortality in comparison with untreated controls

Cc1cc(C2=NOC(c3cc(Cl)cc(Cl)c3)(C(F)(F)F)C2)ccc1C=NNC(=O)NCC(F)(F)F (stereo not drawn) [Compound 1-48]
at least 75%: all assays above
